In the supplement of paper PMC13380429:

How the values were obtained:
Details in all cases: 72 h
HepG2 [1] = assay: drug sensitivity score (DSS) for viability; higher = more toxic; extreme values may be limits of the assay
Calu-3 [2] = assay: as above
U2OS [3] = assay: as above
Vero E6 [4] = assay: as above
Caco-2 [5] = assay: as above
HepG2 [6] = assay: cell viability relative to DMSO; higher = less toxic
Calu-3 [7] = assay: as above
U2OS [8] = assay: as above
Vero E6 [9] = assay: as above
Caco-2 [10] = assay: as above
HepG2 [11] = assay: relative viability EC50 (midpoint between 100% and the lowest measured viability); higher = less toxic
Calu-3 [12] = assay: as above
U2OS [13] = assay: as above
Vero E6 [14] = assay: as above
Caco-2 [15] = assay: as above

Row | Structure (SMILES) | drug sensitivity score (HepG2 [1]) | drug sensitivity score (Calu-3 [2]) | drug sensitivity score (U2OS [3]) | drug sensitivity score (Vero E6 [4]) | drug sensitivity score (Caco-2 [5]) | cell viability (HepG2 [6]; 1 nM) | cell viability (HepG2 [6]; 10 nM) | cell viability (HepG2 [6]; 100 nM) | cell viability (HepG2 [6]; 1000 nM) | cell viability (HepG2 [6]; 10000 nM) | cell viability (Calu-3 [7]; 1 nM) | cell viability (Calu-3 [7]; 10 nM) | cell viability (Calu-3 [7]; 100 nM) | cell viability (Calu-3 [7]; 1000 nM) | cell viability (Calu-3 [7]; 10000 nM) | cell viability (U2OS [8]; 1 nM) | cell viability (U2OS [8]; 10 nM) | cell viability (U2OS [8]; 100 nM) | cell viability (U2OS [8]; 1000 nM) | cell viability (U2OS [8]; 10000 nM) | cell viability (Vero E6 [9]; 1 nM) | cell viability (Vero E6 [9]; 10 nM) | cell viability (Vero E6 [9]; 100 nM) | cell viability (Vero E6 [9]; 1000 nM) | cell viability (Vero E6 [9]; 10000 nM) | cell viability (Caco-2 [10]; 1 nM) | cell viability (Caco-2 [10]; 10 nM) | cell viability (Caco-2 [10]; 100 nM) | cell viability (Caco-2 [10]; 1000 nM) | cell viability (Caco-2 [10]; 10000 nM) | relative viability EC50 (HepG2 [11]) | relative viability EC50 (Calu-3 [12]) | relative viability EC50 (U2OS [13]) | relative viability EC50 (Vero E6 [14]) | relative viability EC50 (Caco-2 [15])
1 | COc1cc2cc(c1Cl)N(C)C(=O)C[C@H](OC(=O)C(C)C)[C@]1(C)O[C@@H]1[C@H](C)[C@@H]1C[C@@](O)(NC(=O)O1)[C@H](OC)/C=C/C=C(\C)C2 [ansamitocin-p-3] | 33.8 | 27.7 | 37.6 | 35 | 28.4 | 39% | 32.4% | 38% | 33.8% | 30.9% | 62.6% | 53.6% | 36.7% | 37.4% | 37.8% | 39.6% | 29.1% | 19.9% | 17.9% | 16.3% | 72.1% | 32.5% | 29.8% | 21.2% | 18.4% | 45% | 47.9% | 39% | 40.9% | 35.1% | < 0.001 µM | < 0.001 µM | < 0.001 µM | 0.0021 µM | < 0.001 µM
2 | CCOc1ccc(C[C@H]2NC(=O)CCSSC[C@@H](C(=O)N3CCC[C@H]3C(=O)N[C@@H](CCCN)C(=O)NCC(N)=O)NC(=O)[C@H](CC(N)=O)NC(=O)[C@H]([C@@H](C)O)NC(=O)[C@H]([C@@H](C)CC)NC2=O)cc1 [atosiban] | 0 | 0 | 0 | 0 | 0 | 107% | 99.5% | 92.8% | 90.4% | 97.4% | 103% | 105% | 103% | 118% | 98.9% | 100% | 99.1% | 94.9% | 100% | 98.7% | 102% | 96.2% | 110% | 102% | 100% | 93.1% | 108% | 102% | 102% | 91.8% | > 10 µM | > 10 µM | > 10 µM | > 10 µM | > 10 µM
3 | OC(c1ccccc1)(c1ccccc1)C1CCNCC1 [azacyclonol] | 0 | 0 | 0 | 0 | 0 | 116% | 91.6% | 101% | 97.8% | 93% | 88.6% | 99.5% | 90% | 97% | 101% | 102% | 99.2% | 98.5% | 102% | 97.1% | 105% | 100% | 102% | 99.9% | 99.9% | 93.6% | 102% | 97% | 102% | 93.6% | > 10 µM | > 10 µM | > 10 µM | > 10 µM | > 10 µM
4 | C=C[C@]1(C)CC[C@@H](C(=C)C)C[C@H]1C(=C)C [beta-elemene] | 0 | 0 | 0 | 0 | 0 | 95.8% | 101% | 93.2% | 106% | 103% | 106% | 98.4% | 103% | 97.2% | 102% | 102% | 98% | 97% | 96.4% | 101% | 97.4% | 97.2% | 95.7% | 97.8% | 96.6% | 95.3% | 98.6% | 97.5% | 92.6% | 102% | > 10 µM | > 10 µM | > 10 µM | > 10 µM | > 10 µM
5 | CCOc1nc2cccc(C(=O)OC(C)OC(=O)OC3CCCCC3)c2n1Cc1ccc(-c2ccccc2-c2nn[nH]n2)cc1 (stereo not given) [candesartan-cilexetil] | 0 | 0 | 0 | 0 | 0.1 | 98.3% | 103% | 104% | 102% | 100% | 93.1% | 105% | 99.5% | 105% | 105% | 93.7% | 106% | 93.6% | 90.9% | 92.7% | 107% | 106% | 109% | 104% | 99.1% | 95.6% | 100% | 91.4% | 101% | 86.5% | > 10 µM | > 10 µM | > 10 µM | > 10 µM | > 10 µM
6 | C[C@@](Cc1ccc(O)c(O)c1)(NN)C(=O)O [carbidopa] | 0 | 0 | 0 | 0 | 0 | 107% | 113% | 101% | 98.5% | 95.8% | 100% | 103% | 89.5% | 114% | 99.9% | 92.9% | 99.9% | 92.8% | 100% | 102% | 92.6% | 87.6% | 91.4% | 90.4% | 106% | 98.1% | 94.4% | 95.1% | 110% | 108% | > 10 µM | > 10 µM | > 10 µM | > 10 µM | > 10 µM
7 | CCCCCCCCCCCCCCCCOc1nc2ccc(C)cc2c(=O)o1 [cetilistat] | 0 | 0 | 0 | 0 | 0 | 106% | 94% | 113% | 99.9% | 97.9% | 103% | 107% | 94.8% | 100% | 107% | 93.7% | 98.2% | 93.5% | 99.7% | 103% | 99.8% | 81.8% | 98% | 99.4% | 105% | 94.8% | 96.6% | 89.8% | 107% | 96.7% | > 10 µM | > 10 µM | > 10 µM | > 10 µM | > 10 µM
8 | O=C(O)CCC(=O)OC[C@@H](NC(=O)C(Cl)Cl)[C@H](O)c1ccc([N+](=O)[O-])cc1 [chloramphenicol-sodium-succinate] | 0 | 0 | 0 | 0 | 0 | 105% | 114% | 88.3% | 103% | 96.3% | 108% | 97.1% | 97.3% | 91% | 106% | 100% | 96.9% | 98.1% | 99.3% | 102% | 104% | 104% | 96.5% | 102% | 97.2% | 103% | 95.1% | 98.2% | 100% | 103% | > 10 µM | > 10 µM | > 10 µM | > 10 µM | > 10 µM
9 | NCC(=O)N1C[C@H](NC(=O)c2ccccc2)C[C@H]1C(=O)O [danegaptide] | 0 | 0 | 0 | 0 | 0 | 106% | 102% | 99.7% | 101% | 104% | 98.6% | 93.3% | 101% | 96.4% | 91.1% | 93.6% | 93.6% | 98.5% | 101% | 99.3% | 101% | 101% | 93.8% | 99.9% | 106% | 98.3% | 97.1% | 90.7% | 86.3% | 107% | > 10 µM | > 10 µM | > 10 µM | > 10 µM | > 10 µM
10 | CCCCCCCCCCOc1cc2c(O)c(C(=O)OCC)cnc2cc1OCC [decoquinate] | 0 | 0 | 0 | 0 | 0 | 95.9% | 103% | 98.9% | 107% | 96.2% | 99.8% | 107% | 106% | 98.2% | 105% | 100% | 99.8% | 99% | 99.6% | 100% | 102% | 103% | 105% | 96.7% | 103% | 101% | 92.6% | 93.3% | 89.4% | 96.6% | > 10 µM | > 10 µM | > 10 µM | > 10 µM | > 10 µM
11 | N#CC(Cc1ccc(O)cc1)c1ccc(O)cc1 (stereo not given) [diarylpropionitrile] | 0 | 0 | 0 | 0 | 0 | 98.7% | 90.3% | 99.6% | 89.2% | 102% | 108% | 91.2% | 100% | 94.3% | 103% | 99.6% | 99.4% | 98.7% | 102% | 102% | 99.4% | 104% | 99.1% | 102% | 94.8% | 99% | 103% | 88.4% | 100% | 95.3% | > 10 µM | > 10 µM | > 10 µM | > 10 µM | > 10 µM
